Experimental data: patent US12403132B2, “Methods of treating bone marrow failure syndromes and compositions for use in the same” (The Board of Trustees of the Leland Stanford Junior …, priority 2020, dated 2025)

What was measured:
S6K = S6K phosphorylation in differentiating RPS19-insufficient CD34+ progenitors; type: cell-based, human; settings: 5 μM, differentiating RPS19-insufficient cells
Description: FIG. 5. NLK-mediated phosphorylation of raptor leads to reduced mTOR activity and increased autophagy. (a) Fetal liver CD34+ progenitors were transduced with controls or shRPS19 and differentiated for 5 days in the presence or absence of 5 μM BI-D1870 (RSK inhibitor). Samples were lysed and normalized for protein abundance before being subjected to immunoprecipitation of NLK, raptor, S6K and 4E-BP1. Immunoprecipitated NLK was utilized to examine NLK activity (a—top panel—Orange, blue and green depict NLK, Myb and raptor phosphorylation respectively), while raptor, S6K and 4E-BP1 were subjected to western blotting for phosphorylated serine/threonine residues (bottom panels). In parallel, lysates were probed for total raptor, S6K, 4E-BP1, NLK and GAPDH (bottom panels) by Western blotting. […] (d) Cells treated as above were plated in 96 wells and absorbance measured at a wavelength of 520 nm. […] After imagining, 100 cells per group were analyzed and the number of intense fluorescent puncta per cell was scored (lower panels).
Raptor is the regulatory component of the mTOR Complex 1 and a substrate of NLK in osmotic and oxidative stress. […] We determined immuno-purified NLK from human and murine RPS19- and RPL11-insufficient progenitors, as well as derived from DBA patients can phosphorylate raptor in vitro (FIGS. 1-4). […]

red cell production = experiment: Red cell production in in vitro DBA models; type: cell-based
Description: (§1) IV. Nemo-like kinase (NLK) is hyperactivated in red cell precursors in the bone marrow of patients with DBA. Inhibition of NLK by knockdown or chemical compounds in our in vitro DBA models results in improvement of red cell production. Regardless of the underlying genetic mutation causing DBA, NLK is hyperactivated. […] Our goal is to next test OTS167 in mouse models of DBA. According to clinical trials.gov, OTS167 is currently in trials for AML, ALL, MDS, MPN, and CML, solid tumors, and breast cancer, but not DBA. This is the first example of a targeted therapy for all DBA patient regardless of the underlying mutations. Giving this drug would be easier and cheaper than gene editing to correct the gene defect.

normal bone marrow cells = experiment: Toxicity to normal bone marrow cells; type: cell-based; settings: in vitro
Description: as §1

NLK = biological target: T1, NLK (Homo sapiens, UniProt Q9UBE8); experiment: NLK inhibition by OTS167 in DBA models
T1 sequence (Q9UBE8 1-527): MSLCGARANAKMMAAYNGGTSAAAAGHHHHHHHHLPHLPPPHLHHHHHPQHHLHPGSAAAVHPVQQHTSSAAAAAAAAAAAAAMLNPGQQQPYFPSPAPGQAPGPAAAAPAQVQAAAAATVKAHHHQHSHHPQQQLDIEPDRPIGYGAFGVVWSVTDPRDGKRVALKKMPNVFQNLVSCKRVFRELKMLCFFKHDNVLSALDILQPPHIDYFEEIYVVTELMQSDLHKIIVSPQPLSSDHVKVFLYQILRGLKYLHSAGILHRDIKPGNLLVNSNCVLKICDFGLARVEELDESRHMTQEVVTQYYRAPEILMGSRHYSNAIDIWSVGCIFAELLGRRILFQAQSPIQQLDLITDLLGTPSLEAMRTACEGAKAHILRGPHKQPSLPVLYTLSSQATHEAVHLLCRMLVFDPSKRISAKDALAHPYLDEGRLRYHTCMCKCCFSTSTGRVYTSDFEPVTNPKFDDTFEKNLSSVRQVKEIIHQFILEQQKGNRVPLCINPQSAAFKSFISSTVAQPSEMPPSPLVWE
Description: as §1

SMILES | S6K phosphorylation (S6K) | red cell production in vitro (red cell production) | toxicity to normal bone marrow cells (normal bone marrow cells) | inhibition of NLK (NLK)
CC(C)CCN1c2nc(Nc3cc(F)c(O)c(F)c3)ncc2N(C)C(=O)C1C (stereo not shown) [BI-D1870] | reduced to below basal levels | – | – | –
CC(=O)c1cnc2ccc(-c3cc(Cl)c(O)c(Cl)c3)nc2c1N[C@H]1CC[C@H](CN(C)C)CC1 [OTS167] | – | improves red cell production | without toxicity | inhibit NLK
